Results taken from patent publication US4256765A, “Novel hydroxamic acid compounds, method for preparation thereof and medicaments containing such compounds” (priority 1978, dated 1981).

Legend:
Acute toxicity (LD50) = format: in vivo; conditions: for acute toxicity (in words): rats; for LD50: rat, in vivo
Protocol: The test compounds were administered orally to SD strain male rats weighing about 270 g and SD strain female rats weighing about 170 g.

[1] = target: T1, Urease extracted and purified from sword bean (Canavalia gladiata, UniProt A0AAN9R4W0); experiment: Urease inhibitory activity (I50), method of Kobashi et al.; format: biochemical; conditions: read-out: Urease-inhibitory activity I50
T1 construct: nickel homohexamer by analogy with jack bean urease
Protocol: (1) Measurement of urease inhibitory activity of test compounds
Urease was extracted and purified from sword bean and molar concentrations of the test compounds causing 50% inhibition of urease activity (I50) were determined by the method of Kobashi et al. [Refer to Biochim, Biophys. Acta 227, 429-441 (1971).]

[2] = Urinary excretion in rats; format: in vivo, SD strain male rats; conditions: rat, po; 100 mg/Kg orally, SD male rats, urine excreted within 24 hours; read-out: Urinary excretion (%) (mean value ± S. E.)
Protocol: (2) Measurement of urinary excretion in rats
100 mg/Kg of the test compounds were administered orally to the SD strain male rats weighing about 300 g, and urine specimens excreted within 24 hours were collected by cross-over method. Amounts of the test compounds in urine were determined according to the method of Kobashi et al. [Refer to Yakugaku Zasshi 93 (12), 1564-1572 (1973); J. Biochem. 83, 287-293 (1973).]

[3] = tested on: Salmonela typhimurium TA-98 and TA-100; experiment: Mutagenic activity in microbial tests; format: cell-based, Salmonella typhimurium
Protocol: The screening of mutagenicity was carried out according to Ames test [Refer to Ames B. N. et al.: Proc: Natl. Acad. Sci. U.S.A., 72, 979-983 (1975)] which is now widely utilized all over the world as an examination for detection of mutagenicity.
Using the strain of Salmonela typhimurium TA-98 and TA-100 as the test bacteria, the mutageic activity was examined for the test compounds untreated with S-9 (9,000×g supernatant fraction of the rat liver homogenate induced with PCB) and the test compounds treated with S-9, respectively. The examined concentration of the test compounds was up to 40,000 μg/ml. Dimethyl sulfoxide (DMSO) was used as solvent.
The result of examination was judged to be positive, when the number of reverse mutation colony was twice comparing with the control group and the positive correlation between dosage and mutagenic activity of the test compound was recognized.

[4] = clinical study of urolithiasis; cited from earlier work
Proteus mirabilis (OM-1) [5] = experiment: Inhibitory effect on alkalization of urine; format: cell-based; conditions: for pH value (mean value ± S. E.) 8 hours after inoculation: normal human urine, Proteus mirabilis 2.75×10^5 cells/ml, 37° C.; for inhibition of the alkalization of urine (in words): Proteus mirabilis (OM-1) inoculated to normal human urine
Protocol: (§1) To 18 ml of normal human urine was added each test compound to make 10^-3 M and 2×10^-4 M test solution in a final concentration.
(§2) On the other hand, distilled water was added to 18 ml of normal human urine instead of the test compound to make a blank solution.
(§3) To the solution was inoculated intact Proteus mirabilis (OM-1) to make a cell suspension of 2.75×10^5 cells/ml and harvested at 37° C. Before inoculation and at 8 hours after inoculation, the pH values of the solution were measured.

Proteus mirabilis (OM-1) [6] = experiment: Inhibitory effect on calculus formation in urine; format: cell-based; conditions: for inhibition of the calculus formation in urine (in words): Proteus mirabilis (OM-1) inoculated to normal human urine; for inhibition at 200 µM / inhibition at 1000 µM: Proteus mirabilis, 8 h, normal human urine, read-out: Inhibitory rate of calculus formation (%) (mean value ± S. E.) 8 hours after inoculation; for inhibition at 200 µM: 2 × 10^-4 M test compound; for inhibition at 1000 µM: 10^-3 M test compound
Protocol: as §1, §2, §3
Inhibitory rate of calculi formation was calculated by measuring the weight of formed calculi.

T1 sequence (A0AAN9R4W0 entry or part of it): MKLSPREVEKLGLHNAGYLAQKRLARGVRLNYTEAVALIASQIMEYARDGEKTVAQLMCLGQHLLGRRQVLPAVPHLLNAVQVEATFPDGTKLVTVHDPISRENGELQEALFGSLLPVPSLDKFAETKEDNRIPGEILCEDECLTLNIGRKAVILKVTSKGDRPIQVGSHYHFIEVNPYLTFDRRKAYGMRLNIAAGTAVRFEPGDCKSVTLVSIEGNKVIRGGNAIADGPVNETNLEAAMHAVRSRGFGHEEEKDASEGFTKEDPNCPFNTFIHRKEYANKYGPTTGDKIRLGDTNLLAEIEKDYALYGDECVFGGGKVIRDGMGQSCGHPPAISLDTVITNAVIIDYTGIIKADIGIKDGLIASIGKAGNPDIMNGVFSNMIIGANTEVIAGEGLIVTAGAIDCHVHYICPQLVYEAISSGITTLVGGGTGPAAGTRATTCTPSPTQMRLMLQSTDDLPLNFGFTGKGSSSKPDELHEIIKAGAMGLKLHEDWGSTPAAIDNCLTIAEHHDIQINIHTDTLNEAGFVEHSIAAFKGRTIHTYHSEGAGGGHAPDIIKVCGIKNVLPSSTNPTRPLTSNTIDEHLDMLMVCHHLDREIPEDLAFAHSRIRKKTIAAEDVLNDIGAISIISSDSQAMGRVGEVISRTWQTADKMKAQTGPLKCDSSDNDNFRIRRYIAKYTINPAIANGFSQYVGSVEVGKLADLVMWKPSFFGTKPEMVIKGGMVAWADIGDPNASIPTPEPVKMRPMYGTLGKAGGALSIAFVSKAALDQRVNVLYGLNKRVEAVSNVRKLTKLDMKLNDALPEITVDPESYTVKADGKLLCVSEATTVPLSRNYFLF

Q: For CCC(C)C(=O)NCC(=O)NO (racemic) [Compound C, N-(DL-2-methyl-n-butyloyl)-glycinohydroxamic acid], which “acute toxicity (in words)” value (Acute toxicity (LD50); oral) is on record?
A: low

Q: What about the LD50 (Acute toxicity (LD50); oral, SD male and female rats) of the same compound?
A: > 9000 mg/kg

Q: And the IC50 [1]?
A: 1.29 µM

Q: And the dose excreted at 24 h [2]?
A: 9.25 ± 2.16%

Q: With O=C(CNC(=O)c1ccco1)NO [2-(2-furoylamino)-acetohydroxamic acid] as the compound, how does the “mutagenic activity (in words)” value [3] read?
A: show mutagenecity

Q: For CC(=O)Nc1cccc(C(=O)NCC(=O)NO)c1 [2-(meta-acetylaminobenzamide)-acetohydroxamic acid], which “mutagenic activity (in words)” value [3] is on record?
A: show mutagenecity

Q: For COc1cccc(C(=O)NCC(=O)NO)c1 [2-(meta-methoxybenzamide)-acetohydroxamic acid], which “mutagenic activity (in words)” value [3] is on record?
A: show mutagenecity

Q: Which “mutagenic activity (in words)” value [3] does the source give for COc1ccc(C(=O)NCC(=O)NO)cc1 [2-(para-methoxybenzamide)-acetohydroxamic acid] here?
A: show mutagenecity

Q: With O=C(CNC(=O)c1ccc(Cl)cc1)NO [Benurestat, 2-(para-chlorobenzamide)-acetohydroxamic acid] as the compound, how does the “mutagenic activity (in words)” value [3] read?
A: have the mutagenic activity

Q: Which “mutagenic activity (in words)” value [3] does the source give for CC(=O)NO [CH3 CONHOH, Acetohydroxamic acid] here?
A: have the mutagenic activity

Q: And the “decreasing the amount of ammonia in urine and preventing the alkalization of urine (in words)” value [4]?
A: effective

Q: Which results are given for CC(C)(C)C(=O)NCC(=O)NO [Compound A, N-(pivaloyl)-glycinohydroxamic acid]?
A: acute toxicity (in words) (Acute toxicity (LD50); oral): low; LD50 (Acute toxicity (LD50); oral, SD male and female rats): > 9000 mg/kg; IC50 [1]: 4.38 µM; pH value (mean value ± S. E.) 8 hours after inoculation (Proteus mirabilis (OM-1) [5]; 2 × 10^-4 M test compound): 8.41 ± 0.007; pH value (mean value ± S. E.) 8 hours after inoculation (Proteus mirabilis (OM-1) [5]; 10^-3 M test compound): 7.33 ± 0.09; inhibition of the alkalization of urine (in words) (Proteus mirabilis (OM-1) [5]): inhibited the alkalization of urine; dose excreted at 24 h [2]: 14.6 ± 1.82%; inhibition of the calculus formation in urine (in words) (Proteus mirabilis (OM-1) [6]): inhibited; inhibition at 200 µM (Proteus mirabilis (OM-1) [6]): 50 ± 5.2%; inhibition at 1000 µM (Proteus mirabilis (OM-1) [6]): 82 ± 8.2%

Q: Which “acute toxicity (in words)” value (Acute toxicity (LD50); oral) does the source give for CCC(CC)C(=O)NCC(=O)NO [Compound B, N-(2-ethyl-n-butyloyl)-glycinohydroxamic acid] here?
A: low

Q: And the LD50 (Acute toxicity (LD50); po)?
A: > 9000 mg/kg

Q: And the IC50 [1]?
A: 0.79 µM

Q: And the “pH value (mean value ± S. E.) 8 hours after inoculation” value (Proteus mirabilis (OM-1) [5]; 2 × 10^-4 M test compound)?
A: 7.24 ± 0.04

Q: What about the “pH value (mean value ± S. E.) 8 hours after inoculation” value (Proteus mirabilis (OM-1) [5]; 10^-3 M test compound) of the same compound?
A: 6.14 ± 0.01

Q: What about the “inhibition of the alkalization of urine (in words)” value (Proteus mirabilis (OM-1) [5]) of the same compound?
A: inhibited the alkalization of urine

Q: And the dose excreted at 24 h [2]?
A: 5.37 ± 0.852%

Q: And the “inhibition of the calculus formation in urine (in words)” value (Proteus mirabilis (OM-1) [6])?
A: inhibited

Q: And the inhibition at 200 µM (Proteus mirabilis (OM-1) [6])?
A: 93.7 ± 1.6%

Q: And the inhibition at 1000 µM (Proteus mirabilis (OM-1) [6])?
A: 95.7%
